In test [1] the target is T1, M3 subtype muscarinic receptor (Sus scrofa, UniProt P11483).
T1 construct: Tracheal submucosal gland cells were isolated from the tracheal epithelium; endogenous in cells; host or cells: primary swine tracheal submucosal (mucus) gland cells in culture
The test is described as follows: ACh-induced short-circuit current (ΔIsc) in cultured airway mucus gland cells, Ussing chamber, Schild dose-ratio method. It counts as cell-based, swine. The following applies: for effect on the cholinergic (ACh) response / antimuscarinic action: at highest drug concentration tested: cetirizine 100 μM, loratadine 30 μM (Table 1; abstract 10 μM), fexofenadine 10 μM; for Muscarinic inhibition (pA2): Schild dose-ratio method, slope set to 1, inhibition of ACh-induced ΔIsc, pA2 = -log Ki, mean ± SEM.

A further test deals with T2, H1 receptor (Sus scrofa, UniProt K9IVW0).
T2 construct: Tracheal submucosal gland cells were isolated from the tracheal epithelium; endogenous in cells; host or cells: primary swine tracheal submucosal (mucus) gland cells in culture
In words: histamine-induced short-circuit current (ΔIsc) in cultured airway mucus gland cells, Ussing chamber. It counts as cell-based, swine.

For test [2], the target named is muscarinic receptors in the cerebral cortex. As to conditions: read-out: Ki against muscarinic receptors, radioligand (QNB) binding, all muscarinic subtypes, ref 16 Kubo et al.; cited from earlier work.
For the next test, the target named is histamine H1 receptor. The following applies: radioligand binding assays; ref 18 Anthes et al.; cited from earlier work.
Where [3] appears, read: read-out: H1 receptor inhibition (~1/2 max-μM).

Like-named read-outs stand apart in the source and are kept apart here.

T2 sequence (K9IVW0 1-472): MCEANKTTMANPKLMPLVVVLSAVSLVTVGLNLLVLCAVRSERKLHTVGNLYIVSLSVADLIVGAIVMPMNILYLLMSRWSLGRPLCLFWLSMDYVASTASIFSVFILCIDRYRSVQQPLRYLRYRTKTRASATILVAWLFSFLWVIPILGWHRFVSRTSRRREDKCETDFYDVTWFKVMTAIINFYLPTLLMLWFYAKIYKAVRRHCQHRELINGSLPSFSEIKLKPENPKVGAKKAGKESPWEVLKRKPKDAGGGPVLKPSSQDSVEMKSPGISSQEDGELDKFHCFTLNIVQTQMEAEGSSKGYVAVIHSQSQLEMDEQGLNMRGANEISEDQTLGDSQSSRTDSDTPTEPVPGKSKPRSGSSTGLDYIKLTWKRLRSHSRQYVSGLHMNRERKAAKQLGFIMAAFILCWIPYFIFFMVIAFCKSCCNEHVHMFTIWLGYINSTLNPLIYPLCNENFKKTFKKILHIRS
T1 sequence (P11483 whole entry): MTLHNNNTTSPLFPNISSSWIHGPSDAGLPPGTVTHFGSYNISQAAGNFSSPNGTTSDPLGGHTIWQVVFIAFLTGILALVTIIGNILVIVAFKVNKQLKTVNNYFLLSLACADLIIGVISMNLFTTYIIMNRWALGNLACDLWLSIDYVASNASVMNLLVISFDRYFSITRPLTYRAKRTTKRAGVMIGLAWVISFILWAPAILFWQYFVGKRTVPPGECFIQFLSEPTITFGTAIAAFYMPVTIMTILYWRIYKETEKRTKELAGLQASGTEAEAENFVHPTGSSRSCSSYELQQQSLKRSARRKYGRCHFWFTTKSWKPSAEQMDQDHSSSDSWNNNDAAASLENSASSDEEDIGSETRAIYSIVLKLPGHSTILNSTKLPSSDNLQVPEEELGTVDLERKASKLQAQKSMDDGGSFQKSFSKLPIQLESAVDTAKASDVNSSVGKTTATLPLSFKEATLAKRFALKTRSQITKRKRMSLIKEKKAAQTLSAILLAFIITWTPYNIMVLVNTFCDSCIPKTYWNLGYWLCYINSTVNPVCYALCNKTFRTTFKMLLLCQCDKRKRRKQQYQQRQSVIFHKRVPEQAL

As to `CC(=O)OCC[N+](C)(C)C` [ACh, acetylcholine], the “maximum increase in current (ΔIsc)” value in test [1] worked out at 15.5 ± 1 μA/cm^2.

On to `O=C(O)COCCN1CCN(C(c2ccccc2)c2ccc(Cl)cc2)CC1` (centres unmarked) [Cetirizine], for which, on H1 receptor (setting [3]), the IC50 came out at 0.12 µM. For the same compound, the “effect on the cholinergic (ACh) response / antimuscarinic action” value in test [1] is given as “No effect (at 100 μM)”; in test [1] (listed as cetirizine), “no effects”.

Compound `CC(C)(C(=O)O)c1ccc(C(O)CCCN2CCC(C(O)(c3ccccc3)c3ccccc3)CC2)cc1` (centres unmarked) [Fexofenadine] gave an IC50 against H1 receptor (H1 receptor inhibition (~1/2 max-μM)) of 0.25 µM.

As for `OCCOCCN1CCN(C(c2ccccc2)c2ccc(Cl)cc2)CC1` (centres unmarked) [Hydroxyzine], the IC50 at H1 receptor (setting [3]) amounted to 0.14 µM. For the same compound, the Ki is 3800 nM in test [2] and 15000 nM in test [1] (M3 muscarinic receptor induced ΔIsc, from Schild analysis, read-out: estimated Ki for inhibition of muscarinic receptors). The Kb is 10 nM at histamine H1 receptor and 15800 nM in test [1]. In addition, in test [1], the “Muscarinic inhibition (pA2)” value turned out to be 4.8.

As to `COc1ccccc1CNCCCCCCNCCCCCCCCNCCCCCCNCc1ccccc1OC` [Methoctramine], in test [1], the Kb was 2510 nM and the “Muscarinic inhibition (pA2)” value came to 5.6.

As to `NCCc1c[nH]cn1` [histamine], the “maximum increase in current (ΔIsc)” value at H1 receptor was 19 ± 1 μA/cm^2.

As a reminder, the Ki is the equilibrium dissociation constant of an inhibitor or competing ligand from its target.

The record behind these values is article PMC1079883, “Effects of first and second generation antihistamines on muscarinic induced mucus gland cell ion transport” (BMC Pharmacology, 2005).
